Values of other authors in US7838544B2, “Heterocyclic inhibitors of 11-β hydroxyl steroid dehydrogenase type 1 and methods of using the same” (Incyte Corporation, priority 2006, dated 2010).

Target: T1, 11βHSD1 in the eye (Homo sapiens, UniProt P28845)
T1 construct: host or cells: eye of healthy volunteers, in vivo (11βHSD1 localized to non-pigmented epithelial cells)
Conditions: healthy volunteers, after seven days of carbenoxolone treatment

T1 sequence (P28845 whole entry): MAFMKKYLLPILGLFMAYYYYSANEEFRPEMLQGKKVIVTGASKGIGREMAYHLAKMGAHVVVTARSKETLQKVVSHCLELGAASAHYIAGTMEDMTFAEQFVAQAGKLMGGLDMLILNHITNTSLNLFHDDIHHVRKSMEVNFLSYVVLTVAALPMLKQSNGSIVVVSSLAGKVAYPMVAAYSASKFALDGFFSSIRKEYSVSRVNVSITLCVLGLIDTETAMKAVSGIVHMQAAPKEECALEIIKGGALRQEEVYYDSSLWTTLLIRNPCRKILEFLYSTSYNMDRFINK

**Q.** Which “reduction of intra-ocular pressure (IOP)” value does the source give for `CC1(C)[C@@H](OC(=O)CCC(=O)O)CC[C@]2(C)[C@H]3C(=O)C=C4[C@@H]5C[C@@](C)(C(=O)O)CC[C@]5(C)CC[C@@]4(C)[C@]3(C)CC[C@@H]12` [carbenoxolone] here?
**A.** Its value is 18%.
